Test results reported in patent US6387909B1, “Thienopyranecarboxamide derivatives” (Recordati S.A. Chemical and Pharmaceutical Company, priority 1999, dated 2002).
Read-outs that look alike come from different tables or passages of the source.

What was measured:
[1] = system: prostatic urethral contractions induced by noradrenaline; details: dog, i.v.; data from Leonardi et al. 1997; cited from earlier work
diastolic blood pressure [2] = details: dog, i.v.; data from Leonardi et al. 1997; cited from earlier work
[3] = target: T1, recombinant α1a-adrenoceptor (Homo sapiens, UniProt P35348); experiment: Radioligand binding ([3H]prazosin) to cloned α1a adrenoceptor; details: read-out: Affinity (Ki) α1a
T1 construct: expressed in transfected cells
T1 sequence (P35348 1-466): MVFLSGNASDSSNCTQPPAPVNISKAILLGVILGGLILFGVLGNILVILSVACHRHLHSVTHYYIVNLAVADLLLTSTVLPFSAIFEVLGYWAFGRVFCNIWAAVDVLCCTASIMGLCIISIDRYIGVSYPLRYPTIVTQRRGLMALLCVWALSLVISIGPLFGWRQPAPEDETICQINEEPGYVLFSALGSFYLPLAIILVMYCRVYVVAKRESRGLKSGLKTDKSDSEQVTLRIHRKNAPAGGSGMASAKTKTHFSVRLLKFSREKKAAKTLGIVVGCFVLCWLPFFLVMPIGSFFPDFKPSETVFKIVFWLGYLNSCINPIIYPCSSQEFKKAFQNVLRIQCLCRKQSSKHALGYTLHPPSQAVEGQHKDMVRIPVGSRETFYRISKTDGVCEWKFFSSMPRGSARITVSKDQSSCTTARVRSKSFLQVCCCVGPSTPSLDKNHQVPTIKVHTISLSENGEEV
Experimental: (§1) Determination of affinity for cloned subtypes of the α1-adrenoceptor was performed in membranes from cells transfected by electroporation with DNA expressing the genes encoding each α1-adrenoceptor subtype.
(§2) Non-specific binding was determined in the presence of 10 μM phentolamine. Incubation was stopped by addition of ice-cold Tris buffer and rapid filtration through Schleicher & Schuell GF52 filters that had been pretreated with 0.2%-polyethyleneimine.
(§3) Data were expressed as mean of Ki.

[4] = target: T2, recombinant α1b-adrenoceptor (Homo sapiens, UniProt P35368); experiment: Radioligand binding ([3H]prazosin) to cloned α1b adrenoceptor; details: read-out: Affinity (Ki) α1b
T2 construct: expressed in transfected cells
T2 sequence (P35368 1-520): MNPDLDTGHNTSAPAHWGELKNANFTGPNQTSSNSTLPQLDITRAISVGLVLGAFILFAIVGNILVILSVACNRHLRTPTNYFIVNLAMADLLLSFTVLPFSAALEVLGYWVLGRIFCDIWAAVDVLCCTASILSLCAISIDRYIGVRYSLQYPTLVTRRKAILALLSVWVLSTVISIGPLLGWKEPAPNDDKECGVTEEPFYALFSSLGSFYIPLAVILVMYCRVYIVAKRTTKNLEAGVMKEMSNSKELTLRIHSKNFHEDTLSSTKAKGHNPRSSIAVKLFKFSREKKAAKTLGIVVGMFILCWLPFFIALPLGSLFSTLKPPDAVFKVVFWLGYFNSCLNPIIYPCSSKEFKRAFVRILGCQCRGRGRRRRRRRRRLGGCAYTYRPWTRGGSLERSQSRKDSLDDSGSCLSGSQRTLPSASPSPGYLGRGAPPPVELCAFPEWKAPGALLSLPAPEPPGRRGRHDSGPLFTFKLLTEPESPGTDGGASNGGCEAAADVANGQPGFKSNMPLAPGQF
Experimental: as §1, §2, §3

[5] = target: T3, recombinant α1d-adrenoceptor (Homo sapiens, UniProt P25100); experiment: Radioligand binding ([3H]prazosin) to cloned α1d adrenoceptor; details: read-out: Affinity (Ki) α1d
T3 construct: expressed in transfected cells
T3 sequence (P25100 1-572): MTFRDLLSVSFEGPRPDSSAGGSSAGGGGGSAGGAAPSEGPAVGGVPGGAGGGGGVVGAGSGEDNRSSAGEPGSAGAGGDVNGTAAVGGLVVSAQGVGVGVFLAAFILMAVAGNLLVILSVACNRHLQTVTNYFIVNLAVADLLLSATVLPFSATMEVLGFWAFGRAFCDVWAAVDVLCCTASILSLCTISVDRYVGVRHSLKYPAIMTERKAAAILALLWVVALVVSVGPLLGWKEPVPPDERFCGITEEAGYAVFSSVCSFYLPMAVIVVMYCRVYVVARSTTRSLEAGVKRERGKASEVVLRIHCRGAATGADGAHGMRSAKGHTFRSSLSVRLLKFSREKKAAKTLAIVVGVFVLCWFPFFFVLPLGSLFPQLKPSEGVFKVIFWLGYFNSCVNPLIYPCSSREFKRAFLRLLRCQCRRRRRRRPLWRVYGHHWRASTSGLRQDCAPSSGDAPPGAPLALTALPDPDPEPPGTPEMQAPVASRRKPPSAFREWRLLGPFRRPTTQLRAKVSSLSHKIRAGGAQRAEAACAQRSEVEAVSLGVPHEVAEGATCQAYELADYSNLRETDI
Experimental: as §1, §2, §3

[6] = target: T4, human 5-HT1A-serotoninergic receptor (Homo sapiens, UniProt P08908); experiment: Radioligand binding ([3H]8-OH-DPAT) to cloned 5-HT1A receptor in HeLa cell membranes; details: read-out: Affinity (Ki) 5-HT1A
T4 construct: expressed in transfected cells; host or cells: HeLa
T4 sequence (P08908 1-422): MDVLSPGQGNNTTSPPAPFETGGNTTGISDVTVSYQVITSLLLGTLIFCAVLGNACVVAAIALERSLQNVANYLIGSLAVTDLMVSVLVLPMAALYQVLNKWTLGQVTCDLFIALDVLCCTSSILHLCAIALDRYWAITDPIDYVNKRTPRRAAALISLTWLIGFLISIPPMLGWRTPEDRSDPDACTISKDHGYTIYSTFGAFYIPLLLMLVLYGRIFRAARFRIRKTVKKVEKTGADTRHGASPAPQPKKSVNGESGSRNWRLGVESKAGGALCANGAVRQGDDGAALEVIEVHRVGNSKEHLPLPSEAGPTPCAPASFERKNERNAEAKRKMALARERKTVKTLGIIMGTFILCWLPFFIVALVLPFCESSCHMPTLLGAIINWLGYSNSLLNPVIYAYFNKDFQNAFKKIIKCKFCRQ
Experimental: HeLa cells were grown as monolayers in Dulbecco's modified Eagle's medium (DMEM), supplemented with 10% fetal calf serum and gentamicin (100 μg/mL), at 37° C. in 5% CO2. The cells were detached from the growth flask at 95% confluence by a cell scraper and were lysed in a buffer containing ice cold 5 mM Tris, 5 mM EDTA (pH 7.4). The homogenates were centrifuged at 40,000×g for 20 minutes and the membranes were resuspended in a small volume of ice-cold buffer containing 5 mM Tris and 5 mM, EDTA (pH 7.4), and immediately frozen and stored at −70° C. until use.
Non-specific binding was determined in the presence of 10 μM 5-HT. Incubation was stopped by addition of ice-cold Tris buffer and rapid filtration through Schleicher & Schuell GF52 filters that had been pretreated with 0.2%-polyethyleneimine.
as §3

α1L adrenoceptor = target: T5, α1L adrenoceptor (Oryctolagus cuniculus, UniProt O02824); experiment: Functional antagonism of noradrenaline-induced contractions of rabbit aorta pretreated with chloroethylclonidine; type: biochemical; details: NA-induced contractions
T5 sequence (O02824 1-466): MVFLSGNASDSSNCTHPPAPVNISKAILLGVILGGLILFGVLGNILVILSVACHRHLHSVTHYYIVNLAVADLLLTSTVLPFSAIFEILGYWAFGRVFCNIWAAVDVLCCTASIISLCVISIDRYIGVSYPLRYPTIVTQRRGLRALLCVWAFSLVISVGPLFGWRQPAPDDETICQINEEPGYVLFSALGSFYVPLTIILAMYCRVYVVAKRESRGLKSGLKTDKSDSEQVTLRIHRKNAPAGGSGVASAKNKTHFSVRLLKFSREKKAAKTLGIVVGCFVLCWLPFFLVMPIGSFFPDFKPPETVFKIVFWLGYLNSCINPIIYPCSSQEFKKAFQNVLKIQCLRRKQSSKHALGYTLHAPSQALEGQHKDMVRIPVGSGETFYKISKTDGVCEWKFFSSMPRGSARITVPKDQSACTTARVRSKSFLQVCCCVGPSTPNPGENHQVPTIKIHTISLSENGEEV
Experimental: Adult male New Zealand rabbits were sacrificed by cervical dislocation. The aorta was removed, placed in Krebs-Henseleit buffer and dissected free of adhering tissue. […] Desmethylimipramine (0.1 μM) and corticosterone (1 μM) to block neuronal and extraneuronal uptake of NA, (±)-propranol (1 μM) to block β adrenoceptors and yohimbine (0.1 μM) to block α2 adrenoceptors were added to the buffer.
The preparations were equilibrated for 60 minutes and then primed every 30 minutes with 10 μM NA for three times. The aortic rings were then incubated with the alkylating agent chloroethylclonidine (50 μM) for 30 minutes and then washed extensively three times, over a 30 min period before constructing the NA-concentration/response curve. Following washing, tissue was re-equilibrated for 45 min. Test drug was added and after 30 minutes, a second cumulative-NA-concentration/response curve was constructed. Each antagonist concentration was tested using 2-3 aortic rings from different rabbits.
Dose ratios (i.e., the ratio between the concentrations of noradrenaline required to produce half-maximal response in the presence and in the absence of the test antagonist) were calculated at each concentration of the compounds. The logarithm of these dose ratio −1 was plotted against the logarithm of the compound concentrations (Schild plot) to evaluate the affinity constant Kb.
When only one or two concentrations of the test compounds were utilised, the apparent Kb value was calculated using the formula: Kb=[B]/(DOSE RATIO-1), where B is the antagonist concentration.

[7] = system: prostatic urethral contractions induced by noradrenaline; experiment: Urethral contractions induced by noradrenaline injection in anaesthetized dogs after intravenous administration; type: in vivo; details: dog, i.v.
Experimental: (§4) The experiments were performed according to the method of Imagawa et al. (J. Pharmacol. Methods, 22:103-111, 1989), with substantial modifications, as follows: adult male beagle dogs, weighing 8-10 kg, were anaesthetized with pentobarbital sodium (30 mg/kg i.v. and 2 mg/kg/h i.v.), intubated and spontaneously ventilated with room air. In order to monitor systemic blood pressure (BP), a polyethylene (PE) catheter was introduced into the aortic arch through the left femoral artery. A collateral of the left femoral vein was cannulated for infusion of anaesthetic, and the right femoral vein was cannulated for administration of compounds. For intraarterial (i.a.) injection of noradrenaline (NA), a PE catheter was introduced into the lower portion of the abdominal aorta via the right external iliac artery. Through such procedure, NA was selectively distributed to the lower urinary tract. A paramedian vertical suprapubic incision extending from the base of the pelvis to the mid-abdominal region was made and the bladder and the prostate were exposed. The bladder was manually emptied with a syringe. Prostatic urethral pressure was monitored with a Mikro-tip catheter (5F) introduced into the bladder via the external urethral meatus, and withdrawn until the pressure transducer was positioned in the prostatic region of the urethra. A ligature was secured between the neck of the bladder and urethra to isolate the response of the latter and to avoid any interaction with the bladder. Another ligature was put around the Mikro-tip catheter at the external meatus, to secure the catheter itself.
(§5) After a stabilizing period following the surgical procedure (30 minutes), in which arterial and prostatic urethral pressures were continuously monitored as basal values, i.a. administration of NA was made at intervals of 20 minutes.
(§6) The NA doses were chosen to produce an increase of at least 100% in urethral pressure. The test compounds were administered intravenously in a cumulative manner with intervals of 15-20 minutes between administrations. […]

diastolic blood pressure [8] = experiment: Blood pressure in anaesthetized dogs after intravenous administration; type: in vivo; details: dog, i.v.
Experimental: as §4, §5, §6

| Structure (SMILES) | UC ID50 NA (dose inhibiting by 50% the urethral contractions induced by noradrenaline) [1] | DBP ED25 (dose inducing a 25% decrease in diastolic blood pressure) (diastolic blood pressure [2]) | Ki [3] | Ki [4] | Ki [5] | Ki [6] | pKb, functional affinity for the α1L adrenoceptor subtype (α1L adrenoceptor) | UC ID50 NA (dose inhibiting by 50% the urethral contractions induced by noradrenaline) [7] | DBP ED25 (dose inducing a 25% decrease in diastolic blood pressure) (diastolic blood pressure [8]) |
| --- | --- | --- | --- | --- | --- | --- | --- | --- | --- |
| COc1ccccc1N1CCN(CCCNC(=O)c2cccc3c(=O)c(C)c(-c4ccccc4)oc23)CC1 [Compound A] | 0.0024 mg/kg | 0.243 mg/kg | – | – | – | – | – | – | – |
| COc1ccccc1N1CCN(CCCNC(=O)c2csc3c(=O)cc(C(F)(F)F)oc23)CC1 [Example 4, N-{3-[4-(2-Methoxyphenyl)-1-piperazinyl]propyl}-7-oxo-5-trifluoromethyl-7H-thieno[3,2b]pyran-3-carboxamide] | – | – | 0.6 nM | 23.2 nM | 3.6 nM | 26.2 nM | 7.92 | – | – |
| COc1ccc(Cl)cc1N1CCN(CCCNC(=O)c2csc3c(=O)cc(-c4ccccc4)oc23)CC1 [Example 1, N-{3-[4-(5-Chloro-2-methoxyphenyl)1-piperazinyl]propyl}-7-oxo-5-phenyl-7H-thieno[3,2-b]Pyran-3-carboxamide] | – | – | 0.58 nM | 2.53 nM | 4.12 nM | – | – | 0.0053 mg/kg | 0.28 mg/kg |
| COc1ccc(OCC(F)(F)F)cc1N1CCN(CCCNC(=O)c2csc3c(=O)cc(-c4ccccc4)oc23)CC1 [Example 6, N-{3-[4-[2-Methoxy-5-(2,2,2-trifluoroethoxy)phenyl]-1-piperazinyl]propyl}-7-oxo-5-phenyl7H-thieno[3,2-b]pyran-3-carboxamide] | – | – | 3.19 nM | 39.3 nM | 48.2 nM | 1080 nM | – | – | – |
| O=C(NCCCN1CCN(c2ccc(F)cc2OCC(F)(F)F)CC1)c1csc2c(=O)cc(-c3ccccc3)oc12 [Example 7, N-{3-[4-[4-Fluoro-2-(2,2,2-trifluoroethoxy)phenyl]-1-piperazinyl]propyl}-7-oxo-5-phenyl-7H-thieno[3,2-b]pyran-3-carboxamide] | – | – | 0.17 nM | 3.47 nM | 2.45 nM | 88.5 nM | 8.66 | – | – |
